The source of these data is paper doi:10.1101/2024.11.24.625011v1 (biorxiv, 2024).

In this test the target is T1, RetSDISMED2 (PaRetSp); RetS (residues 41-185) (Pseudomonas aeruginosa, UniProt Q9HUV7).
T1 sequence (Q9HUV7 41-185): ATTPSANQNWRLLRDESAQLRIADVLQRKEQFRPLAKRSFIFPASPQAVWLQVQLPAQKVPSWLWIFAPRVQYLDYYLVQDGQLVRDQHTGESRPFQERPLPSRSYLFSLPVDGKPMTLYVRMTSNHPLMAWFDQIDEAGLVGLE
As to the kind of experiment: isothermal titration calorimetry. The class given is binding.

The term Kd denotes the free concentration of one partner at which half of the binding sites on the other are occupied at equilibrium, for simple one-to-one binding. Low values mean higher affinity, high ones lower affinity. Consider `NC[C@H](O)c1ccc(O)c(O)c1` [norepinephrine], for which the Kd was around 1000 nM.
Take `CCCCc1oc2ccc(NS(C)(=O)=O)cc2c1C(=O)c1ccc(OCCCN(CCCC)CCCC)cc1` [dronedarone]: the Kd was around 3600 nM.
